# From patent US10526389B2, “Peptides and combinations of peptides for use in immunotherapy against lung cancer, including NSCLC and other cancers” (Immatics Biotechnologies GmbH, priority 2015, dated 2020)
# Tested on: CD8+ T cells
# Test: In vitro immunogenicity of HLA-A*24 peptides (CD8+ T-cell priming with aAPCs, multimer staining)
# Format: cell-based, human
# Experimental: In order to obtain information regarding the immunogenicity of the TUMAPs of the present invention, the inventors performed investigations using an in vitro T-cell priming assay based on repeated stimulations of CD8+ T cells with artificial antigen presenting cells (aAPCs) loaded with peptide/MHC complexes and anti-CD28 antibody.
# Generation of pMHC/anti-CD28 coated beads, T-cell stimulations and readout was performed in a highly defined in vitro system using four different pMHC molecules per stimulation condition and 8 different pMHC molecules per readout condition.
# The purified co-stimulatory mouse IgG2a anti human CD28 Ab 9.3 (Jung et al., 1987) was chemically biotinylated using Sulfo-N-hydroxysuccinimidobiotin as recommended by the manufacturer (Perbio, Bonn, Germany). Beads used were 5.6 μm diameter streptavidin coated polystyrene particles (Bangs Laboratories, Illinois, USA).
# 800.000 beads/200 μl were coated in 96-well plates in the presence of 4×12.5 ng different biotin-pMHC, washed and 600 ng biotin anti-CD28 were added subsequently in a volume of 200 μl. Stimulations were initiated in 96-well plates by co-incubating 1×10^6 CD8+ T cells with 2×10^5 washed coated beads in 200 μl TCM supplemented with 5 ng/ml IL-12 (PromoCell) for 3 days at 37° C. Half of the medium was then exchanged by fresh TCM supplemented with 80 U/ml IL-2 and incubating was continued for 4 days at 37° C. This stimulation cycle was performed for a total of three times. For the pMHC multimer readout using 8 different pMHC molecules per condition, a two-dimensional combinatorial coding approach was used as previously described (Andersen et al., 2012) with minor modifications encompassing coupling to 5 different fluorochromes. Finally, multimeric analyses were performed by staining the cells with Live/dead near IR dye (Invitrogen, Karlsruhe, Germany), CD8-FITC antibody clone SK1 (BD, Heidelberg, Germany) and fluorescent pMHC multimers. For analysis, a BD LSRII SORP cytometer equipped with appropriate lasers and filters was used. Peptide specific cells were calculated as percentage of total CD8+ cells. Evaluation of multimeric analysis was done using the FlowJo software (Tree Star, Oregon, USA). In vitro priming of specific multimer+CD8+ lymphocytes was detected by comparing to negative control stimulations.
# Exemplary flow cytometry results after TUMAP-specific multimer staining for 3 peptides of the invention are shown in FIGS. 3A-3E together with corresponding negative controls.
substance,measurement,value
COL6A3-001 (SYLQAANAL; listed as Homo sapiens),in vitro immunogenicity: donors,++ (20%-49% = ++)
same,in vitro immunogenicity: wells,+ (<20% = +)
COL6A3-012 (RYPPPVREF; listed as Homo sapiens),in vitro immunogenicity: donors,++++ (>= 70% = ++++)
same,in vitro immunogenicity: wells,++ (20%-49% = ++)
COL6A3-013 (EYQPEMLEKF; listed as Homo sapiens),in vitro immunogenicity: donors,+ (<20% = +)
same,in vitro immunogenicity: wells,+ (<20% = +)
COL12A1-003 (SYSIGIANF; listed as Homo sapiens),in vitro immunogenicity: donors,++++ (>= 70% = ++++)
same,in vitro immunogenicity: wells,+ (<20% = +)
COLEC12-001 (IYAGQWNDF; listed as Homo sapiens),in vitro immunogenicity: donors,+++ (50%-69% = +++)
same,in vitro immunogenicity: wells,+ (<20% = +)
DCSTA-001 (KYIEAIQWI; listed as Homo sapiens),in vitro immunogenicity: donors,++++ (>= 70% = ++++)
same,in vitro immunogenicity: wells,++ (20%-49% = ++)
DDX5-007 (NYTNGSFGSNF; listed as Homo sapiens),in vitro immunogenicity: donors,+ (<20% = +)
same,in vitro immunogenicity: wells,+ (<20% = +)
DYR-001 (VYTZIQSRF; listed as Homo sapiens),in vitro immunogenicity: donors,++ (20%-49% = ++)
same,in vitro immunogenicity: wells,+ (<20% = +)
FAM83A-001 (PFLQASPHF; listed as Homo sapiens),in vitro immunogenicity: donors,++++ (>= 70% = ++++)
same,in vitro immunogenicity: wells,++ (20%-49% = ++)
FKBP10-002 (TYIGQGYII; listed as Homo sapiens),in vitro immunogenicity: donors,++++ (>= 70% = ++++)
same,in vitro immunogenicity: wells,+ (<20% = +)
G2E-002 (LYINKANIW; listed as Homo sapiens),in vitro immunogenicity: donors,++ (20%-49% = ++)
same,in vitro immunogenicity: wells,+ (<20% = +)
GLS-001 (DYIPQLAKF; listed as Homo sapiens),in vitro immunogenicity: donors,++++ (>= 70% = ++++)
same,in vitro immunogenicity: wells,+ (<20% = +)
HSPBP-001 (RYLEAGAAGLRW; listed as Homo sapiens),in vitro immunogenicity: donors,+ (<20% = +)
same,in vitro immunogenicity: wells,+ (<20% = +)
IQGAP1-001 (TYAALNSKATF; listed as Homo sapiens),in vitro immunogenicity: donors,+ (<20% = +)
same,in vitro immunogenicity: wells,+ (<20% = +)
KDM6B-001 (RYGGSFAEL; listed as Homo sapiens),in vitro immunogenicity: donors,++ (20%-49% = ++)
same,in vitro immunogenicity: wells,+ (<20% = +)
KFLEHTNFEF (listed as Homo sapiens) [SEQ ID No. 39],in vitro immunogenicity: donors,++ (20%-49% = ++)
same,in vitro immunogenicity: wells,+ (<20% = +)
KLRD-001 (QYLFPSFETF; listed as Homo sapiens),in vitro immunogenicity: donors,++++ (>= 70% = ++++)
same,in vitro immunogenicity: wells,+ (<20% = +)
KYLEKYYNL (listed as Homo sapiens) [SEQ ID No. 30],in vitro immunogenicity: donors,++++ (>= 70% = ++++)
same,in vitro immunogenicity: wells,++ (20%-49% = ++)
LAPTM5-001 (SYMEVPTYLNF; listed as Homo sapiens),in vitro immunogenicity: donors,++ (20%-49% = ++)
same,in vitro immunogenicity: wells,+ (<20% = +)
LYQILQGIVF (listed as Homo sapiens) [SEQ ID No. 161],in vitro immunogenicity: donors,++++ (>= 70% = ++++)
same,in vitro immunogenicity: wells,+ (<20% = +)
MREG-001 (RYLFVVDRL; listed as Homo sapiens),in vitro immunogenicity: donors,++++ (>= 70% = ++++)
same,in vitro immunogenicity: wells,++++ (>= 70% = ++++)
MUC16-001 (TYSEKTTLF; listed as Homo sapiens),in vitro immunogenicity: donors,++ (20%-49% = ++)
same,in vitro immunogenicity: wells,+ (<20% = +)
NUP153-001 (VYFKPSLTPSGEF; listed as Homo sapiens),in vitro immunogenicity: donors,+ (<20% = +)
same,in vitro immunogenicity: wells,+ (<20% = +)
OLFML2B-001 (YYGNTLVEF; listed as Homo sapiens),in vitro immunogenicity: donors,++++ (>= 70% = ++++)
same,in vitro immunogenicity: wells,++ (20%-49% = ++)
OLFML2B-002 (YYYGNTLVEF; listed as Homo sapiens),in vitro immunogenicity: donors,++ (20%-49% = ++)
same,in vitro immunogenicity: wells,+ (<20% = +)
PPTC-001 (HYFNTPFQL; listed as Homo sapiens),in vitro immunogenicity: donors,++++ (>= 70% = ++++)
same,in vitro immunogenicity: wells,++ (20%-49% = ++)
PSMA4-001 (LYIGWDKHYGF; listed as Homo sapiens),in vitro immunogenicity: donors,++++ (>= 70% = ++++)
same,in vitro immunogenicity: wells,+ (<20% = +)
PVRL1-001 (IYNPSMGVSVL; listed as Homo sapiens),in vitro immunogenicity: donors,++ (20%-49% = ++)
same,in vitro immunogenicity: wells,+ (<20% = +)
RASA2-001 (YYVDKLFNTI; listed as Homo sapiens),in vitro immunogenicity: donors,++ (20%-49% = ++)
same,in vitro immunogenicity: wells,+ (<20% = +)
RBPJ-001 (RYLHVEGGNF; listed as Homo sapiens),in vitro immunogenicity: donors,++ (20%-49% = ++)
same,in vitro immunogenicity: wells,+ (<20% = +)
RFMDGHITF (listed as Homo sapiens) [SEQ ID No. 25],in vitro immunogenicity: donors,++ (20%-49% = ++)
same,in vitro immunogenicity: wells,+ (<20% = +)
RYISPDQLADL (listed as Homo sapiens) [SEQ ID No. 47],in vitro immunogenicity: donors,+++ (50%-69% = +++)
same,in vitro immunogenicity: wells,+ (<20% = +)
RYLDSLKAIVF (listed as Homo sapiens) [SEQ ID No. 28],in vitro immunogenicity: donors,++++ (>= 70% = ++++)
same,in vitro immunogenicity: wells,+ (<20% = +)
RYLEKFYGL (listed as Homo sapiens) [SEQ ID No. 26],in vitro immunogenicity: donors,++++ (>= 70% = ++++)
same,in vitro immunogenicity: wells,+ (<20% = +)
RYTLHINTL (listed as Homo sapiens) [SEQ ID No. 43],in vitro immunogenicity: donors,++ (20%-49% = ++)
same,in vitro immunogenicity: wells,+ (<20% = +)
SAMD9L-001 (IYQRWKDLL; listed as Homo sapiens),in vitro immunogenicity: donors,+++ (50%-69% = +++)
same,in vitro immunogenicity: wells,+ (<20% = +)
SLC-003 (RYFPTQALNF; listed as Homo sapiens),in vitro immunogenicity: donors,+ (<20% = +)
same,in vitro immunogenicity: wells,+ (<20% = +)
SMPDL3B-001 (IYNQIAELW; listed as Homo sapiens),in vitro immunogenicity: donors,++++ (>= 70% = ++++)
same,in vitro immunogenicity: wells,++ (20%-49% = ++)
SP14-001 (AYPDLNEIYRSF; listed as Homo sapiens),in vitro immunogenicity: donors,+ (<20% = +)
same,in vitro immunogenicity: wells,+ (<20% = +)
TPS-001 (IYTRVTYYL; listed as Homo sapiens),in vitro immunogenicity: donors,++++ (>= 70% = ++++)
same,in vitro immunogenicity: wells,++ (20%-49% = ++)
TRIM11-001 (IFLDYEAGHLSF; listed as Homo sapiens),in vitro immunogenicity: donors,+ (<20% = +)
same,in vitro immunogenicity: wells,+ (<20% = +)
TRPM2-001 (VYHSYLTIF; listed as Homo sapiens),in vitro immunogenicity: donors,++++ (>= 70% = ++++)
same,in vitro immunogenicity: wells,++ (20%-49% = ++)
TTC13-001 (RYLEYFEKI; listed as Homo sapiens),in vitro immunogenicity: donors,++++ (>= 70% = ++++)
same,in vitro immunogenicity: wells,+++ (50%-69% = +++)
TUBGCP3-001 (FYQGIVQQF; listed as Homo sapiens),in vitro immunogenicity: donors,++ (20%-49% = ++)
same,in vitro immunogenicity: wells,+ (<20% = +)
TYKYVDINTF (listed as Homo sapiens) [SEQ ID No. 159],in vitro immunogenicity: donors,+++ (50%-69% = +++)
same,in vitro immunogenicity: wells,+ (<20% = +)
